Paper PMC8347176, “Novel High Affinity Sigma-1 Receptor Ligands from Minimal Ensemble Docking-Based Virtual Screening” (International Journal of Molecular Sciences, 2021)
Counter-ions that a name gives are not always drawn. Like-named read-outs stand apart in the source and are kept apart here.

Tests used:
sigma-1 receptor (S1R) = target: T1, sigma-1 receptor (S1R) (Cavia porcellus, UniProt Q60492); assay: Sigma-1 receptor competitive radioligand binding assay with [3H](+)-pentazocine in guinea pig liver membranes
T1 construct: Guinea pig liver tissue preparation abundantly contains sigma-1 receptor as compared to other tissues; from tissue; host or cells: guinea pig liver membrane homogenate
Experimental: Male Wistar-Harlan rats (n = 10, 225–250 g) and guinea pigs (n = 10, 350–400 g) were handled according to the European Communities Council Directive (2010/63/EU) and to the Regulations on Animal Protection (40/2013. (II. 14.) Korm. r.) of Hungary. The researchers did the best effort to minimize the number of animals and their suffering. Preparation of guinea pig and rat liver homogenates was performed according to a previous method with a slight modification. Euthanized male guinea pig and rats were killed by decapitation, and their livers were removed rapidly. Minced fresh livers were homogenized in ice-cold homogenization buffer (10 mM NaH2PO4 pH 7.4, 0.32 M sucrose, 1 mM MgSO4, 10 μg/mL leupeptin, 1 μg/mL pepstatin A, 5 μg/mL soybean trypsin inhibitor, 0.5 mM EGTA, 1 mM AEBSF) using a Braun Teflon-glass homogenizer at the highest rpm for 30 s. The homogenate was centrifuged at 17,000× g for 10 min (4 °C). Supernatant was recentrifuged at 100,000× g for 60 min at 4 °C. The resulting pellet was resuspended in 10 volumes homogenization buffer, homogenized by a glass homogenizer and stored in aliquots at −80 °C. The protein content of the samples was measured by the Bradford method and samples were diluted in assay buffer to obtain the appropriate amount for the assay.
Binding assays for the sigma-1 receptor were performed at 37 °C for 90 min in a 50 mM Tris–HCl binding buffer (pH 8.0) in plastic tubes in a total assay volume of 1 mL that contained 0.5 mg/mL of a membrane protein. […] The incubation was terminated by diluting the samples with an ice-cold wash buffer (50 mM of Tris–HCl, pH 8.0), followed by repeated washing and rapid filtration through Whatman GF/B glass fiber filters (Whatman Ltd., Maidstone, UK) presoaked with 0.1% polyethyleneimine. Filtration was performed with a 24-well Brandel Cell Harvester (Gaithersburg, MD, USA). Filters were air-dried and immersed into Ultima Gold MV scintillation cocktail, and then radioactivity was measured with a TRI-CARB 2100TR liquid scintillation analyzer (Packard, Perkin Elmer, Waltham, MA, USA).
(§1) The results of the competition binding studies are reported as means ± S.E.M. of at least three independent experiments each performed in duplicate. In competition binding studies, the inhibitory constants (Ki) were calculated from the inflection points of the displacement curves using nonlinear least-square curve fitting and the Cheng–Prusoff equation, Ki = EC50/(1 + [ligand]/Kd). All data and curves were analyzed by GraphPad Prism 5.0 (San Diego, CA, USA).

sigma-2 receptor (S2R) = target: T2, sigma-2 receptor (S2R) (Rattus norvegicus, UniProt Q5U3Y7); assay: Sigma-2 receptor competitive radioligand binding assay with [3H]DTG in rat liver membranes, S1R masked with 100 nM (+)-pentazocine
T2 construct: from tissue; host or cells: rat (male Wistar-Harlan) liver membrane homogenate
T2 sequence (Q5U3Y7 1-176): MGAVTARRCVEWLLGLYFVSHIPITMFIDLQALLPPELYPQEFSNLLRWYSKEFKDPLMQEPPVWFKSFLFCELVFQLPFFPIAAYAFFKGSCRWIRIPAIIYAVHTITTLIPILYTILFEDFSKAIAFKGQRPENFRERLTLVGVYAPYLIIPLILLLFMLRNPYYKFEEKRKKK
Experimental: Male Wistar-Harlan rats (n = 10, 225–250 g) and guinea pigs (n = 10, 350–400 g) were handled according to the European Communities Council Directive (2010/63/EU) and to the Regulations on Animal Protection (40/2013. (II. 14.) Korm. r.) of Hungary. The researchers did the best effort to minimize the number of animals and their suffering. Preparation of guinea pig and rat liver homogenates was performed according to a previous method with a slight modification. Euthanized male guinea pig and rats were killed by decapitation, and their livers were removed rapidly. […] The protein content of the samples was measured by the Bradford method and samples were diluted in assay buffer to obtain the appropriate amount for the assay.
as §1

S1R = test system: S1R; design: method as in PMID 16463398; conditions: cited from earlier work

T1 sequence (Q60492 whole entry): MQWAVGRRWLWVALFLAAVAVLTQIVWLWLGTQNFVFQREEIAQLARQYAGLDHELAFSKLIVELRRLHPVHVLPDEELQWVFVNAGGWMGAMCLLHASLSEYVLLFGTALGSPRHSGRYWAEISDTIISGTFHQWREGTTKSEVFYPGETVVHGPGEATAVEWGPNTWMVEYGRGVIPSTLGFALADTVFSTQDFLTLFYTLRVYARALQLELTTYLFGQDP

Compound	Ki (sigma-1 receptor (S1R); read-out: Measured Ki) [µM]	further results
NN1C(=O)C2C3C=CC(C3)C2NC12CCN(Cc1ccccc1)CC2 (racemic) [L5, (±)-diendo-3′-amino-1-benzyl-5′,8′-methano-4′a,5′,8′,8′a-tetrahydrospiro[piperidine-4,2′(1′H)-quinazolin]-4′(3′H)-one]	0.463	
CCOc1cc2c(cc1OCC)[C@H]1CCN[C@@H](c3ccc(N(C)C)cc3)N1CC2 (relative stereo) [L10, (4R*,11bR*)-9,10-Diethoxy-4-[4-(dimethylamino)phenyl]-1,3,4,6,7,11b-hexahydro-2H-pyrimido[6,1-a]isoquinoline]	2.15	
CCOc1cc2c(cc1OCC)[C@H]1[C@H](CSc3ccc(Cl)cc3)CN1CC2 (relative stereo) [L12, (1R*,9bR*)-1-{[(4-Chlorophenyl)thio]methyl}-7,8-diethoxy-1,4,5,9b-tetrahydro-2H-azeto[2,1a]-isoquinoline]	3.27	
CC(C)=CCN1CC[C@]2(C)c3cc(O)ccc3C[C@H]1[C@H]2C [(+)-pentazocine]		displacement of [3H]DTG (partial) (sigma-2 receptor (S2R)): 70–80%
COc1cc2c(cc1OC)C(CCNCc1ccccc1)NCC2 (stereo not shown) [L1, N-Benzyl-6,7-dimethoxy-1,2,3,4-tetrahydro-1-isoquinolineethanamine dihydrochloride]	0.032	
NC(CC(=O)NCc1cccc(C(F)(F)F)c1F)c1ccccc1 (stereo not shown) [L2, 3-Amino-N-(2-fluoro-3-(trifluoromethyl)benzyl]-3-phenylpropanamide hydrochloride]	0.091	
COc1ccc(OCC(O)CN2CCc3ccccc3C2)cc1 (stereo not shown) [L3, 1-[(4-Methoxyphenoxy)methyl]-2-(1,2,3,4-tetrahydroisoquinolin-2-yl)ethanol]	0.11	
Cl.NC(CC(=O)NCc1cc(F)cc(C(F)(F)F)c1)c1ccccc1 (stereo not shown) [L4, 3-Amino-N-(3-fluoro-5-(trifluoromethyl)benzyl]-3-phenylpropanamide hydrochloride]	0.42	melting point: 180 to 182 °C
Cn1c2c(c3ccccc31)CCNC2CNC(=O)OCc1ccccc1 (stereo not shown) [L6, N-Benzyloxycarbonyl-(9-methyl-2,3,4,9-tetrahydro-1H-pyrido[3,4-b]indol-1-yl)methanamine]	1.04	
CC1(C)C2CC(O)C(O)(CNCc3ccccc3)CC21 [L7, (1S,3R,4R,6R)-3-(benzylamino)methyl)-7,7-dimethylbicyclo[4.1.0]heptane-3,4-diol]	1.38	
CC(CN)C(=O)NCc1cccc(C(F)(F)F)c1F (stereo not shown) [L8, 3-Amino-N-(2-fluoro-3-(trifluoromethyl)benzyl]-2-methylpropanamide trifluoroacetate]	1.53	
O=C(NCC1NCCc2c1[nH]c1ccccc21)OCc1ccccc1 (stereo not shown) [L9, N-Benzyloxycarbonyl-(2,3,4,9-tetrahydro-1H-pyrido[3,4-b]indol-1-yl)methanamine]	1.72	
COc1cc(CCN2CCN(CCCc3ccccc3)CC2)ccc1OCCF [fluoroethyl analog of S1R agonist SA4503]		KiS2R/KiS1R (S1R): 14.1
COCCCC/C(=N\OCCN)c1ccc(C(F)(F)F)cc1 [fluvoxamine, reference compound]		displacement of [3H]DTG (partial) (sigma-2 receptor (S2R)): 70–80%; Ki (sigma-1 receptor (S1R); read-out: S1R Ki ± S.E.M.): 0.031 ± 0.003 µM
